≈ marks a conversion by molar mass, not a printed value.

The nature of data set [1]: Selectivity ratio of MIC for Bacteroides fragilis ATCC 25285 to MIC for Clostridioides difficile. In kind it is functional.
The test system of the next data set is Bacteroides fragilis. Briefly: Antibacterial activity against Bacteroides fragilis ATCC 25285 assessed as inhibition of bacterial growth by CLSI based agar dilution susceptibility analysis. In kind it is functional. In general terms: In agar dilution, organisms are placed on agar that contains the substance at set levels.
Data set [2] relates to Clostridioides difficile. In words: Antibacterial activity against Clostridioides difficile assessed as inhibition of bacterial growth by CLSI based agar dilution susceptibility analysis. The data set is classed as functional.
Data set [3] in a line: Drug concentration in golden hamster caecum at 6.25 mg/kg, po measured after 24 hrs by LC-MS/MS analysis. In kind it is ADME, organism-based, Mesocricetus auratus. The conditions noted are these: read-out: Ct.
For data set [4], the system named is Clostridioides difficile. In words: Antibacterial activity against Clostridioides difficile SM8-6865 in CDAD golden hamster model assessed as log reduction in cecum bacterial content at 6.25 mg/kg, po administered twice daily for 4 days. In kind it is functional. Conditions: time 4 day.
The test system of data set [5] is Clostridioides difficile. In words: Antibacterial activity against Clostridioides difficile SM8-6865 in CDAD golden hamster model assessed as protection from lethal infection at 6.25 mg/kg, po administered twice daily for 4 days. In kind it is functional. Conditions: time 4 day.
Data set [6] deals with Clostridioides difficile. In words: Antibacterial activity against Clostridioides difficile SM8-6865 in CDAD golden hamster model assessed as protection from lethal infection at 0.39 o 1.56 mg/kg, po administered twice daily for 4 days. The data set is classed as functional. The conditions noted are these: time 4 day.
A short description of data set [7]: Drug concentration in golden hamster caecum at 6.25 mg/kg, po measured after 1 hr by LC-MS/MS analysis. In kind it is ADME, organism-based, Mesocricetus auratus. Conditions: read-out: Ct.
Data set [8] deals with Clostridioides difficile. In words: Antibacterial activity against Clostridioides difficile SM8-6865 in CDAD golden hamster model assessed as log reduction in cecum bacterial content at 1.56 mg/kg, po administered twice daily for 4 days. In kind it is functional. Conditions: time 4 day.
The test system of data set [9] is Clostridioides difficile. In words: Antibacterial activity against Clostridioides difficile assessed as inhibition of bacterial growth incubated for 18 to 24 hrs by broth microdilution method. The data set is classed as functional. The conditions noted are these: time 18-24 hrs. On the technique in general: Dilution methods test growth across graded concentrations, often in twofold steps.

The subject of data set [10] is Clostridioides difficile. Briefly: Antibacterial activity against Clostridioides difficile SM8-6865 in CDAD golden hamster model assessed as protection from lethal infection at 1.56 mg/kg, po administered twice daily for 4 days. Conditions: time 4 day. The data set is classed as functional.
Data set [11] in a line: Toxicity in Clostridioides difficile SM8-6865 infected golden hamster model assessed as survival at 1.56 mg/kg, po administered once daily for 4 days. In kind it is organism-based, Mesocricetus auratus. The conditions noted are these: in vivo, 96 h, time 4 day.
Data set [12] has as its system Clostridioides difficile. In words: Antibacterial activity against Clostridioides difficile SM8-6865 in CDAD golden hamster model assessed as protection from lethal infection at 1.56 mg/kg, po administered once daily for 4 days. The data set is classed as functional. Conditions: time 4 day.
For data set [13], the system named is Clostridioides difficile. Briefly: Antibacterial activity against Clostridioides difficile SM8-6865 in CDAD golden hamster model assessed as log reduction in cecum bacterial content at 1.56 mg/kg, po administered once daily for 4 days. Conditions: time 4 day. In kind it is functional.

Usually MIC stands for the lowest concentration that inhibits growth of the organism. As a reminder, the MIC50 is the lowest concentration that inhibits either 50% of growth or 50% of the strains tested, depending on the study. As to `CO/C(C)=C1/NC(=O)[C@H]([C@@H](C)O)NC(=O)c2csc(n2)-c2cc(OC)c(-c3nc(C(=O)NCCCN4CCOCC4)cs3)nc2-c2csc(n2)[C@@H]2COC(=O)c3c4c5c(cccc5n3O)COC(=O)[C@@H](O[C@H]3C[C@](C)(O)[C@H](N(C)C)[C@H](C)O3)[C@@H](OC4)[C@H](NC(=O)c3csc1n3)c1nc(cs1)C(=O)N2`, in data set [1], the Selectivity ratio turned out to be 100. Moreover, the MIC in the data set with Bacteroides fragilis is 4 µg/mL (≈ 2.65 µM). Besides, the MIC50 in the data set on Clostridioides difficile [2] is not above 0.015 µg/mL.

For the molecule `CO/C(C)=C1/NC(=O)[C@H]([C@@H](C)O)NC(=O)c2csc(n2)-c2cc(O)c(-c3nc(C(=O)NCCCN4CCOCC4)cs3)nc2-c2csc(n2)[C@@H]2COC(=O)c3c4c5c(cccc5n3O)COC(=O)[C@@H](O[C@H]3C[C@](C)(O)[C@H](N(C)C)[C@H](C)O3)[C@@H](OC4)[C@H](NC(=O)c3csc1n3)c1nc(cs1)C(=O)N2`, in [1], the Selectivity ratio came out at 100. Also, the MIC in the data set on Bacteroides fragilis is 4 µg/mL (≈ 2.67 µM). For the same molecule, the concentration at 24 h in [3] amounted to 80 nM. The MIC50 in the data set with Clostridioides difficile [2] was found to be 0.03 µg/mL (≈ 0.0201 µM). For the same molecule, the Activity is reported as more than 5 log10CFU/g in the data set with Clostridioides difficile [4], 100% in the data set on Clostridioides difficile [5] and 16% in the data set with Clostridioides difficile [6]. For the same molecule, in data set [7], the concentration at 1 h amounted to 6560 nM.

In the case of `CCc1c(Cl)c(O)c(Cl)c(O)c1C(=O)O[C@H]1[C@H](O)[C@H](OC)[C@H](OC/C2=C\C=C\C[C@H](O)/C(C)=C/[C@H](CC)[C@@H](O[C@@H]3OC(C)(C)[C@@H](OC(=O)C(C)C)[C@H](O)[C@@H]3O)/C(C)=C/C(C)=C/C[C@@H]([C@@H](C)O)OC2=O)O[C@@H]1C` [FIDAXOMICIN], the minimum inhibitory concentration (MIC) in the data set on Bacteroides fragilis is more than 16 µg/mL. Besides, the MIC50 in the data set on Clostridioides difficile [2] stood at 0.5 µg/mL (≈ 0.473 µM).

In the case of `Cc1ncc([N+](=O)[O-])n1CCO` [METRONIDAZOLE], the MIC with Bacteroides fragilis was more than 16 µg/mL. In addition, in the data set on Clostridioides difficile [2], the MIC50 is not above 0.015 µg/mL.

On to `C=C(NC(=O)c1csc(-c2nc3c(cc2O)-c2nc(cs2)C(=O)N[C@@H]([C@@H](C)O)C(=O)N/C(=C(\C)OC)c2nc(cs2)C(=O)N[C@@H]2c4nc(cs4)C(=O)N[C@@H](COC(=O)c4c5c6c(cccc6n4O)COC(=O)[C@@H](O[C@H]4C[C@](C)(O)[C@H](N(C)C)[C@H](C)O4)[C@H]2OC5)c2nc-3cs2)n1)C(N)=O` [MJ347-81F4 A], for which the Selectivity ratio in data set [1] was 100. The Activity with Clostridioides difficile [8] is on record as 4 log10CFU/g; in the data set on Clostridioides difficile [4], more than 5 log10CFU/g; with Clostridioides difficile [5], 100%; with Clostridioides difficile [10] it was 66%. The MIC came out at 4 µg/mL (≈ 2.78 µM) in the data set on Bacteroides fragilis and 0.06 µg/mL (≈ 0.0417 µM) with Clostridioides difficile [9]. The concentration at 24 h in data set [3] was determined as 190 nM. Further, in the data set with Clostridioides difficile [2], the MIC50 worked out at 0.03 µg/mL (≈ 0.0209 µM). In addition, the concentration at 1 h in [7] turned out to be 5400 nM.

As for `C=C(NC(=O)c1csc(-c2nc3c(cc2O)-c2nc(cs2)C(=O)N[C@@H]([C@@H](C)O)C(=O)N/C(=C(\C)OC)c2nc(cs2)C(=O)N[C@@H]2c4nc(cs4)C(=O)N[C@@H](COC(=O)c4c5c6c(cccc6n4O)COC(=O)[C@@H](O[C@H]4C[C@]6(C)OCN(C)[C@@H]6[C@H](C)O4)[C@H]2OC5)c2nc-3cs2)n1)C(N)=O` [THIAZOMYCIN], the Selectivity ratio in data set [1] turned out to be 100. In addition, in the data set with Bacteroides fragilis, the MIC stood at 8 µg/mL (≈ 5.57 µM). Besides, in the data set with Clostridioides difficile [2], the MIC50 was 0.06 µg/mL (≈ 0.0418 µM).

Regarding `CN[C@H](CC(C)C)C(=O)N[C@H]1C(=O)N[C@@H](CC(N)=O)C(=O)N[C@H]2C(=O)N[C@H]3C(=O)N[C@H](C(=O)N[C@H](C(=O)O)c4cc(O)cc(O)c4-c4cc3ccc4O)[C@H](O)c3ccc(c(Cl)c3)Oc3cc2cc(c3O[C@@H]2O[C@H](CO)[C@@H](O)[C@H](O)[C@H]2O[C@H]2C[C@](C)(N)[C@H](O)[C@H](C)O2)Oc2ccc(cc2Cl)[C@H]1O` [VANCOMYCIN], the Activity result in data set [11] is on record as “Non-Toxic”; in the data set with Clostridioides difficile [12] it was 100%; in the data set with Clostridioides difficile [13], more than 5 log10CFU/g. In addition, in the data set with Bacteroides fragilis, the MIC came to 0.5 µg/mL (≈ 0.345 µM). Also, the MIC50 with Clostridioides difficile [2] turned out to be 0.25 µg/mL (≈ 0.173 µM).
